Series [1] is described as follows: Reaction of MDAB with active signalogens (aldol donor properties). The following applies: presence of MDAB, absence of oxygen.
The test system of a further series is enteric bacterial cells. Kind of series: MDAB staining of bacterial colonies with indicators I4a and I5a on Tryptic Soy Agar, aerobic and anaerobic. The following applies: for colonial morphology, aerobic conditions / colonial morphology, microaerobic (anaerobic) conditions: Salmonella manhattan (b-gal −), TSAYE with 40 mg/100 ml of indicator. The format is cell-based. As to the method:
Tryptic Soy Agar (TSA) with yeast extract (0.6%) was used as the base plating medium. The media were autoclaved at 121° C. for 15 minutes and placed in a 50° C. water bath to cool. Indicators were added to the basal medium at a final concentration of 40 mg/100 ml (from 80 mg/ml stock solutions in DMF). Over night cultures of enteric bacterial cells in Brain Heart Infusion Broth were streaked onto the plates and incubated at 35° C. for 24 hours under aerobic and anaerobic conditions. After incubation, the colonial morphologies on the plates were recorded (Table III).
Weak staining was observed occasionally due to residual oxygen (micro-anaerobic conditions). Under aerobic conditions indigo (IN-stains) generally dominated the effects of MDAB staining. For example indicator system I4a/MDAB stained colonies violet under anaerobic but indigo blue under aerobic conditions.

Series [2] deals with Pseudomonas aeruginosa 168. Kind of series: IO staining of colonies of beta-D-galactosidase positive/negative bacteria (Table IVb). The format is cell-based. The following applies: Pseudomonas aeruginosa strain 168, b-gal −, 24 h on Nutrient Agar, 150 mg/l indicator, 100 mg/l IPTG.
Series [3] relates to Yersinia enterocolitica 175. Described as above. The format is cell-based. The following applies: Yersinia enterocolitica strain 175, b-gal +/−; 24 h on Nutrient Agar, 150 mg/l indicator, 100 mg/l IPTG.
The subject of another series is Escherichia coli. As to the kind of experiment: IN and IO staining of bacterial colonies under anaerobic conditions. The format is cell-based. Here is the method: Nutrient Agar plates containing 150 mg/l of various substrates and 100 mg/l IPTG were inoculated with Escherichia coli. Plates were put in an anaerobic jar (Anaerojar, Oxoid), an AnaeroGen sachet (Oxoid) was added, the jar was closed and incubated for 24 hours at 37° C.
IN staining cannot be used under anaerobic conditions.

The subject of another series is Shigella sonnei 133. Kind of series: IO staining of colonies of beta-D-galactosidase positive/negative bacteria (Table IVb). The format is cell-based. Conditions: Shigella sonnei strain 133, b-gal +/−; 24 h on Nutrient Agar, 150 mg/l indicator, 100 mg/l IPTG.
In series [4] the test system is Klebsiella pneumoniae 164. The description is as above. The format is cell-based. Conditions: Klebsiella pneumoniae strain 164, b-gal +; 24 h on Nutrient Agar, 150 mg/l indicator, 100 mg/l IPTG.
Another series has as its system Enterobacter cloacae 245. Described as above. The format is cell-based. The following applies: Enterobacter cloacae strain 245, b-gal +; 24 h on Nutrient Agar, 150 mg/l indicator, 100 mg/l IPTG.
In a further series the test system is Salmonella illa 73. Described as above. The format is cell-based. The following applies: Salmonella illa strain 73, b-gal +; 24 h on Nutrient Agar, 150 mg/l indicator, 100 mg/l IPTG.
In a further series the test system is Salmonella bongori 81. The description is as above. The following applies: Salmonella bongori strain 81, b-gal +; 24 h on Nutrient Agar, 150 mg/l indicator, 100 mg/l IPTG. The format is cell-based.
The test system of series [5] is Streptococcus agalactiae 195. Described as above. The format is cell-based. Conditions: Streptococcus agalactiae strain 195, b-gal −; 24 h on Nutrient Agar, 150 mg/l indicator, 100 mg/l IPTG.
The test system of series [6] is Listeria monocytogenes (4b) 290. The series is described as above. The following applies: Listeria monocytogenes (4b) strain 290, b-gal −; 24 h on Nutrient Agar, 150 mg/l indicator, 100 mg/l IPTG. The format is cell-based.
The subject of series [7] is Enterobacter aerogenes 242. Described as above. The format is cell-based. Conditions: Enterobacter aerogenes strain 242, b-gal +; 24 h on Nutrient Agar, 150 mg/l indicator, 100 mg/l IPTG.
Series [8] deals with Escherichia coli (O157:H7) 60. The series is described as above. The format is cell-based. The following applies: Escherichia coli (O157:H7) strain 60, b-gal +; 24 h on Nutrient Agar, 150 mg/l indicator, 100 mg/l IPTG.
The subject of another series is Citrobacter freundii 181. Described as above. The format is cell-based. Conditions: Citrobacter freundii strain 181, b-gal +; 24 h on Nutrient Agar, 150 mg/l indicator, 100 mg/l IPTG.
Series [9] relates to Shigella dysenteriae Serovar 1 131. The description is as above. The format is cell-based. The following applies: Shigella dysenteriae Serovar 1 strain 131, b-gal +/−; 24 h on Nutrient Agar, 150 mg/l indicator, 100 mg/l IPTG.
For a further series, the system named is Staphylococcus aureus 2. The series is described as above. The following applies: Staphylococcus aureus strain 2, b-gal −, 24 h on Nutrient Agar, 150 mg/l indicator, 100 mg/l IPTG. The format is cell-based.
A further series relates to Bacillus subtilis 65. The description is as above. The format is cell-based. Conditions: Bacillus subtilis strain 65, b-gal −; 24 h on Nutrient Agar, 150 mg/l indicator, 100 mg/l IPTG.
For the next series, the system named is Shigella boydii 135. The series is described as above. The format is cell-based. The following applies: Shigella boydii strain 135, b-gal −; 24 h on Nutrient Agar, 150 mg/l indicator, 100 mg/l IPTG.
Series [10] has as its system Staphylococcus intermedius 31. The series is described as above. The format is cell-based. Conditions: Staphylococcus intermedius strain 31, b-gal +; 24 h on Nutrient Agar, 150 mg/l indicator, 100 mg/l IPTG.
Another series deals with Escherichia coli 61. The series is described as above. The format is cell-based. The following applies: Escherichia coli strain 61, b-gal +; 24 h on Nutrient Agar, 150 mg/l indicator, 100 mg/l IPTG.
For a further series, the system named is Aeromonas hydrophila 292. The description is as above. Conditions: Aeromonas hydrophila strain 292, b-gal +; 24 h on Nutrient Agar, 150 mg/l indicator, 100 mg/l IPTG. The format is cell-based.
The subject of series [11] is Salmonella enteritidis 43. Described as above. The format is cell-based. The following applies: Salmonella enteritidis strain 43, b-gal −; 24 h on Nutrient Agar, 150 mg/l indicator, 100 mg/l IPTG.
A further series deals with Serratia marcescens 40. The description is as above. The format is cell-based. Conditions: Serratia marcescens strain 40, b-gal +; 24 h on Nutrient Agar, 150 mg/l indicator, 100 mg/l IPTG.
In the next series the test system is Escherichia coli 270. The series is described as above. The format is cell-based. Conditions: Escherichia coli strain 270, b-gal +; 24 h on Nutrient Agar, 150 mg/l indicator, 100 mg/l IPTG.
The test system of series [12] is Staphylococcus saprophyticus 273. The series is described as above. The format is cell-based. Conditions: Staphylococcus saprophyticus strain 273, b-gal +; 24 h on Nutrient Agar, 150 mg/l indicator, 100 mg/l IPTG.
The mark [13] stands for this setting: Nutrient Agar plates, anaerobically incubated with E. coli.

Turning to `Sc1c[nH]c2ccccc12` [aS7, 1H-Indol-3-thiol], the results for the “Aldol product / color formed with MDAB” value in [1] and in series [1] (listed as 3-mercaptoindole) were “the expected violet color appeared only under strongly acidic conditions” and “did produce the characteristic pink dye (BI7) under strongly acidic conditions”, respectively.

For “5-Bromo-6-chloro-1H-indol-3-yl-beta-D-galactopyranoside [Indicator I5a]”, in the series on enteric bacterial cells (aR MDAB, equivalents 1:1), the “colonial morphology, aerobic conditions” value is on record as “Cream colored colonies” and the “colonial morphology, microaerobic (anaerobic) conditions” value is reported as “Cream colored colonies”. In the series on enteric bacterial cells (no aR), the “colonial morphology, aerobic conditions” value is on record as “Cream colored colonies” and the “colonial morphology, microaerobic (anaerobic) conditions” value is “Cream colored colonies”.

Regarding `Nc1c[nH]c2ccccc12` [aS6, 1H-Indol-3-amine], the “Aldol product / color formed with MDAB” value was “Formation of the expected hetero aldol product was not observed” in series [1] and “failed to yield any aldol product” in series [1] (listed as 3-aminoindole).

With `O=C(c1ccccc1)c1ccccc1-n1cc(O[C@@H]2O[C@H](CO)[C@H](O)[C@H](O)[C@H]2O)c2c(Cl)c(Br)ccc21` [Indicator I22a, 1-(2-Benzoylphenyl)-5-bromo-4-chloro-1H-indol-3-yl-beta-D-galactopyranoside], the “C: Color of colonies” value is “−” in series [2]; “−” in series [3]; “o-r” in the series with Escherichia coli (setting [13]); “+” in the series on Shigella sonnei 133; “+” in series [4]; “+” in the series on Enterobacter cloacae 245. Further, the “C: Color of colonies” value with Salmonella illa 73 was “−”; in the series on Salmonella bongori 81 it was “+/−”; in [5] it was “−”; in series [6], “−”; in [7] it was “+”; in series [8], “+”. In addition, the “C: Color of colonies” value is “+” in the series with Citrobacter freundii 181; “−” in series [9]; “−” in the series with Staphylococcus aureus 2 (footnote 2: S. aureus natural color); “−” with Bacillus subtilis 65; “−” in the series on Shigella boydii 135; “−” in series [10]. Besides, the “C: Color of colonies” value is given as “+” in the series with Escherichia coli 61; “+/−” in the series on Aeromonas hydrophila 292; “−” in series [11]; “+” in the series on Serratia marcescens 40; “+” with Escherichia coli 270; “−” in series [12]. The “G: Growth of colonies” value (in [2]; in series [3]; with Escherichia coli (setting [13]); in the series with Shigella sonnei 133; in series [4]; with Enterobacter cloacae 245) was “+” in each case. Further, the “G: Growth of colonies” value in the series with Salmonella illa 73 is “+”; with Salmonella bongori 81, “+”; in series [5] it was “−”; in series [6] it was “−”; in [7] it was “+”; in [8], “+”. Moreover, the “G: Growth of colonies” value in the series with Citrobacter freundii 181 is given as “+”; in [9] it was “+”; with Staphylococcus aureus 2, “−”; in the series on Bacillus subtilis 65, “−”; in the series on Shigella boydii 135, “+”; in series [10], “−”. Further, the “G: Growth of colonies” value with Escherichia coli 61 is recorded as “+”; with Aeromonas hydrophila 292 it was “+”; in series [11] it was “+”; in the series on Serratia marcescens 40, “+”; in the series on Escherichia coli 270, “+”; in series [12], “−”. Moreover, the “F: Fluorescence of colonies” value was “+^1” in [2] (footnote 1: blue autofluorescence); “−” in series [3]; “+/−” with Shigella sonnei 133; “+/−” in [4]; “+/−” with Enterobacter cloacae 245; “−” in the series on Salmonella illa 73. The “F: Fluorescence of colonies” value in the series with Salmonella bongori 81 is listed as “−”; in [5], “−”; in series [6], “−”; in series [7], “+/−”; in [8], “+/−”; in the series on Citrobacter freundii 181, “+/−”. The “F: Fluorescence of colonies” value is recorded as “−” in series [9]; “−” in the series with Staphylococcus aureus 2; “−” with Bacillus subtilis 65; “−” with Shigella boydii 135; “−” in series [10]; “+/−” with Escherichia coli 61. The “F: Fluorescence of colonies” value in the series on Aeromonas hydrophila 292 was “+/−”; in series [11], “−”; in the series on Serratia marcescens 40, “+/−”; in the series with Escherichia coli 270 it was “+/−”; in series [12], “−”. Also, in the series on Escherichia coli (E. coli, anaerobic, 24 hours at 37° C.), the “Localization of stain under anaerobic conditions” value is on record as “perfect localization”. In the series on Escherichia coli (setting [13]), the “D: Diffusion around colonies” value is listed as “−”. In addition, in the series on Escherichia coli (setting [13]), the “I: Intensity of color” value is listed as “+”. For the same compound, the “L: Localization on colonies” value in the series with Escherichia coli (setting [13]) is “++”. Further, the “S: Size of colonies” value in the series with Escherichia coli (setting [13]) is recorded as 0.5 mm.

Turning to `CN(C)c1ccc(C=O)cc1` [DAB, 4-(N,N-Dimethyl)aminobenzaldehyde], in the series on enteric bacterial cells (all conditions tested), the “Formation of BI-stains when used to replace MDAB” value is reported as “did not produce any BI-stains”.

As for `COc1cc(N(C)C)ccc1C=O` [MDAB, 2-methoxy-4-(N,N-dimethylamino)benzaldehyde], the “Toxic effect on microbial cell growth” value with enteric bacterial cells (Indox/MDAB staining of microbial colonies) is “no toxic effect”.
